# Measured values reported in patent US20030148954A1, “Agents and methods for modulating activator protein-1-mediated cellular processes” (Wisconsin Alumni Research Foundation, priority 2001, published 2003).
# Legend:
# Format in all cases: cell-based, human
# p38 = assay: Western blot with phospho-specific antibodies, p38; settings: K562-NIC-1 versus K562-Babe, 5 nM TPA 30 min
# Method: (§1) Stable Transfection—K562 cells were stably transfected by electroporation with a Bio-Rad Gene pulser electroporator. Cells (5×10^6) were washed with ice-cold PBS, resuspended in 0.5 ml of ice-cold PBS, mixed with 5 μg linearized plasmid DNA, and subjected to electroporation (960 microfarad; 220 V) in a 0.4 cm-wide electroporation cuvette (BTX). pBabe and pNIC-1 were linearized with NotI. Cells were then added to 20 ml of complete IMEM, grown for 48 h, and diluted in complete IMEM containing 1.5 μg/ml puromycin (pools of K562-Babe and K562-NIC-1 cells). Stably transfected cells were analyzed for erythroid differentiation as soon as the pools were generated by benzidine staining to reduce the probability of phenotypic changes that may result from prolonged growth.
# (§2) To measure the phosphorylation state of components of the MAPK pathway, K562-Babe and K562-NIC-1 cells (1×10^6) were collected after treatment with 5 nM TPA or DMSO for 30 min. Cells were washed once with ice-cold PBS, cell pellets were resuspended in 30 μl ice-cold PBS and were immediately boiled in 70 μl SDS sample buffer for 10 min. Proteins (10 μl) were resolved by SDS-PAGE on a 10% acrylamide gel and transferred to Immobilon P membrane (Millipore). […] Antigen-antibody complexes were detected with ECL Plus™ (Amersham Life Science) according to manufacturer's instructions.
# CMV enhancer = assay: pCMVβgal β-galactosidase reporter, transient transfection of K562 cells
# Method: Transient Transfections—K562 cells (5×10^5) were collected by centrifugation at 240×g for 8 min at 4° C. and resuspended in 4 ml of complete IMEM. Plasmid DNAs (1 μg of reporter and 2 μg of effector) were added to 150 μl of IMEM, incubated with Superfect (4 μl/1 μg DNA; Qiagen) for 10 min at room temperature and then added to cells.
# (§3) For each transfection, cells were incubated for 26 h after transfection and then treated with TPA (final concentration: 5 nM) or the vehicle (DMSO). […] Luciferase activity was normalized by the protein content of the lysates, determined by Bradford assay using γ-globulin as a standard.
# ERK1/2 = assay: Western blot with phospho-specific antibodies, ERK1/2; settings: K562-NIC-1 versus K562-Babe, 5 nM TPA 30 min
# Method: as §1, §2
# c-Fos = assay: Western blot of Fos protein; settings: K562-NIC-1 versus K562-Babe
# Method: as §1, §2
# CSL (CBF1) = assay: CSL-dependent (p4×CBF1luc) luciferase reporter, transient transfection of K562 cells
# Text: Plasmids—The pBabe-NIC-1 (pNIC-1) expression vector encoding constitutively active Notch-1 (NIC-1) was described previously (36,37,51). This vector was derived from the pBabe-puro retroviral vector and includes a cDNA sequence encoding amino acids 1759-2556 of human Notch-1 with a Myc tag fused to its carboxyl terminus. Human NIC-1 deletion mutants were generated by PCR using a full-length human Notch-1 expression vector as the template. The Notch-dependent reporter plasmid containing four CBF1 binding sites and an simian virus 40 promoter fused to luciferase (p4×CBF1luc) was described previously (52). The AP-1 reporter plasmid (p1×AP1luc) containing a collagenase promoter fragment (−73/+67) with a single AP-1 binding site in the luciferase reporter vector pGL2-basic (Promega) was described previously (53). The NF-κB reporter plasmid (p3×κBluc) containing three NF-κB binding sites and a minimal promoter fused to luciferase was a kind gift of Dr. Shigeki Miyamoto (University of Wisconsin Medical School). […]
# as §3
substance,measurement,setting,value
"NIC-1: constitutively active Notch-1 intracellular domain, amino acids 1759-2556 of human Notch-1 with carboxyl-terminal Myc tag, expressed from pBabe-NIC-1",effect on TPA-induced or basal phosphorylation of p38,p38,did not affect
same,increase of TPA induced activity of pCMVβgal,"CMV enhancer; K562, TPA induced",~2 fold
same,effect on basal activity of pCMVβgal,"CMV enhancer; K562, basal",no effect
same,basal and TPA-induced ERK1/2 phosphorylation,ERK1/2,slightly higher
same,effect on Fos protein levels,c-Fos,did not affect
same,activation of CSL-dependent reporter activity,CSL (CBF1),strongly activated
